In article PMC9490060, “Synthesis and evaluation of anticancer activity of quillaic acid derivatives: A cell cycle arrest and apoptosis inducer through NF-κB and MAPK pathways” (Frontiers in Chemistry, 2022):

Assays:
[1] = tested on: HCT116 (human colorectal cancer cell line); experiment: MTT anti-proliferative assay, HCT116; format: cell-based; conditions: Homo sapiens, HCT-116, 48 h incubation, means ± SD, n = 3
Description: (§1) The anti-proliferative activities against five human cancer cell lines, including HCT116 (human colorectal cancer cell line), MCF-7 (human breast cancer cell line), SW620 (human colorectal cancer cell line), BEL7402 (human hepatocellular carcinoma cell line), and HepG2 (human hepatocellular carcinoma cell line) were established for all the target compounds using the MTT assay.
(§2) The propidium iodide (PI) and Annexin V-FITC apoptosis detection kit were purchased from Invitrogen (Eugene, OR, United States). 3-(4,5-Dimethylthiazol-2-yl)-2,5-diphenyl-2H-tetrazolium bromide (MTT) was purchased from Sigma-Aldrich Co. (St. Louis, MO, United States). All human cell lines were used in this study, colorectal cancer cell HCT116, colorectal cancer cell SW620, breast cancer cell MCF-7, liver hepatocellular carcinoma cell BEL7402, liver hepatocellular carcinoma HepG2 and normal liver cell L02 were initially purchased from American Type Culture Collection (ATCC, Manassas, VA, United States). RPMI-1640 media, Dulbecco’s modified Eagle’s medium (DMEM), and foetal bovine serum (FBS) were provided from Gibco Company (Grand Island, NY, United States). Cell line MCF-7 and HepG2 were cultivated in DMEM containing 10% (v/v) heat-inactivated FBS, 100 units/ml penicillin and […] streptomycin (Grand Island, NY, United States). Cell lines HCT116, BEL7402, SW620, and L02 were cultivated in RPMI 1640 medium containing 10% (v/v) heat-inactivated FBS, 100 units/ml penicillin, and […] streptomycin. The cells were incubated at 37°C under a 5% CO2 and 90% relative humidity (RH) atmosphere.
(§3) Stock solutions were prepared by diluting target compounds in DMSO at concentrations (1.25, 2.5, 5, and 10 mM). The stock solution was then diluted (1.25, 2.5, 5, and 10 μM) with culture medium, and the concentration of DMSO was controlled not to exceed 0.1%.
(§4) Place the cells in a 96-well plate at an appropriate density to ensure exponential growth (1 × 10^4–1.2×10^4 cells per well) throughout the experiment, and then allow the cells to adhere for 24 h. The cells were then treated with continuous concentrations of each compound (1.25, 2.5, 5, and 10 μM) for 48 h. After 48 h of incubation, 15 μl of MTT solution was added to each well, and the final concentration was 2 mg/ml. Then incubate for another 4 h. After incubation, remove the MTT solution and add […] of DMSO to each well for staining. Shake vigorously for 10 min at room temperature to ensure complete dissolution. The optical density (OD) was read on a microplate reader (ELx 800, BioTek, Highland Park, Winooski, VT, United States) with a wavelength of 492 nm, and then the data was analyzed.

[2] = tested on: SW620 (human colorectal cancer cell line); experiment: MTT anti-proliferative assay, SW620; format: cell-based; conditions: Homo sapiens, SW-620, 48 h incubation, means ± SD, n = 3
Description: as §1, §2, §3, §4

[3] = tested on: MCF-7 (human breast cancer cell line); experiment: MTT anti-proliferative assay, MCF-7; format: cell-based; conditions: Homo sapiens, MCF7, 48 h incubation, means ± SD, n = 3
Description: as §1, §2, §3, §4

[4] = tested on: BEL7402 (human hepatocellular carcinoma cell line); experiment: MTT anti-proliferative assay, BEL7402; format: cell-based; conditions: Homo sapiens, Bel-7402, 48 h incubation, means ± SD, n = 3
Description: as §1, §2, §3, §4

[5] = tested on: HepG2 (human hepatocellular carcinoma cell line); experiment: MTT anti-proliferative assay, HepG2; format: cell-based; conditions: Homo sapiens, HepG2, 48 h incubation, means ± SD, n = 3
Description: as §1, §2, §3, §4

IC50 [1] [µM] | IC50 [2] [µM] | IC50 [3] [µM] | melting point [°C] | IC50 [4] [µM] | IC50 [5] [µM] | Compound
5.01 ± 1.12 | 8.18 ± 1.85 | > 10 | 132 to 134 | > 10 | > 10 | CC1(C)CC[C@]2(C(=O)OCc3nnc(-c4ccc(Cl)cc4)o3)[C@H](O)C[C@]3(C)C(=CC[C@@H]4[C@@]5(C)CC[C@H](O)[C@@](C)(C=O)[C@@H]5CC[C@]43C)[C@@H]2C1 [Compound B3, (5-(4-chlorophenyl)-1,3,4-oxadiazol-2-yl)methyl (4aR,5R,6aS,6bR,8aR,9S,10S,12aR,12bR,14bS)-9-formyl-5,10-dihydroxy-2,2,6a,6b,9,12a-hexamethyl-1,3,4,5,6,6a,6b,7,8,8a,9,10,11,12,12a,12b,13,14b-octadecahydropicene-4a (2H)-carboxylate]
3.11 ± 1.02 | 7.11 ± 1.54 | > 10 | 166 to 168 | > 10 | > 10 | CC1(C)CC[C@]2(C(=O)OCCn3ncn(-c4ccc(Cl)cc4)c3=O)[C@H](O)C[C@]3(C)C(=CC[C@@H]4[C@@]5(C)CC[C@H](O)[C@@](C)(C=O)[C@@H]5CC[C@]43C)[C@@H]2C1 [Compound C3, 2-(4-(4-chlorophenyl)-5-oxo-4,5-dihydro-1H-1,2,4-triazol-1-yl)ethyl (4aR,5R,6aS,6bR,8aR,9S,10S,12aR,12bR,14bS)-9-formyl-5,10-dihydroxy-2,2,6a,6b,9,12a-hexamethyl-1,3,4,5,6,6a,6b,7,8,8a,9,10,11,12,12a,12b,13,14b-octadecahydropicene-4a (2H)-carboxylate]
3.81 ± 1.23 | > 10 | > 10 | 136 to 138 | 7.36 ± 1.45 | 8.45 ± 2.15 | COc1cc(-c2nnc(COC(=O)[C@]34CCC(C)(C)C[C@H]3C3=CC[C@@H]5[C@@]6(C)CC[C@H](O)[C@@](C)(C=O)[C@@H]6CC[C@@]5(C)[C@]3(C)C[C@H]4O)o2)cc(OC)c1OC [Compound B5, (5-(3,4,5-trimethoxyphenyl)-1,3,4-oxadiazol-2-yl)methyl (4aR,5R,6aS,6bR,8aR,9S,10S,12aR,12bR,14bS)-9-formyl-5,10-dihydroxy-2,2,6a,6b,9,12a-hexamethyl-1,3,4,5,6,6a,6b,7,8,8a,9,10,11,12,12a,12b,13,14b-octadecahydropicene-4a (2H)-carboxylate]
4.43 ± 1.34 | 6.12 ± 1.56 | > 10 | 174 to 176 | > 10 | > 10 | CC1(C)CC[C@]2(C(=O)OCCn3ncn(-c4ccccc4)c3=O)[C@H](O)C[C@]3(C)C(=CC[C@@H]4[C@@]5(C)CC[C@H](O)[C@@](C)(C=O)[C@@H]5CC[C@]43C)[C@@H]2C1 [Compound C1, 2-(5-oxo-4-phenyl-4,5-dihydro-1H-1,2,4-triazol-1-yl)ethyl (4aR,5R,6aS,6bR,8aR,9S,10S,12aR,12bR,14bS)-9-formyl-5,10-dihydroxy-2,2,6a,6b,9,12a-hexamethyl-1,3,4,5,6,6a,6b,7,8,8a,9,10,11,12,12a,12b,13,14b-octadecahydropicene-4a (2H)-carboxylate]
3.65 ± 1.22 | > 10 | > 10 | 140 to 142 | > 10 | > 10 | CC1(C)CC[C@]2(C(=O)OCc3nnc(-c4ccc([N+](=O)[O-])cc4)o3)[C@H](O)C[C@]3(C)C(=CC[C@@H]4[C@@]5(C)CC[C@H](O)[C@@](C)(C=O)[C@@H]5CC[C@]43C)[C@@H]2C1 [Compound B6, (5-(4-nitrophenyl)-1,3,4-oxadiazol-2-yl)methyl (4aR,5R,6aS,6bR,8aR,9S,10S,12aR,12bR,14bS)-9-formyl-5,10-dihydroxy-2,2,6a,6b,9,12a-hexamethyl-1,3,4,5,6,6a,6b,7,8,8a,9,10,11,12,12a,12b,13,14b-octadecahydropicene-4a (2H)-carboxylate]

Continued, compound first:

Compound | IC50 [1] [µM] | IC50 [2] [µM] | IC50 [3] [µM] | melting point [°C] | IC50 [4] [µM] | IC50 [5] [µM]
CC1(C)CC[C@]2(C(=O)OCc3cn(-c4ccc(Cl)c(Cl)c4)nn3)[C@H](O)C[C@]3(C)C(=CC[C@@H]4[C@@]5(C)CC[C@H](O)[C@@](C)(C=O)[C@@H]5CC[C@]43C)[C@@H]2C1 [Compound A4, (1-(3,4-dichlorophenyl)-1H-1,2,3-triazol-4-yl)methyl (4aR,5R,6aS,6bR,8aR,9S,10S,12aR,12bR,14bS)-9-formyl-5,10-dihydroxy-2,2,6a,6b,9,12a-hexamethyl-1,3,4,5,6,6a,6b,7,8,8a,9,10,11,12,12a,12b,13,14b-octadecahydropicene-4a (2H)-carboxylate] | > 10 | > 10 | > 10 | 205 to 206 | > 10 | > 10
CC1(C)CC[C@]2(C(=O)OCc3cn(-c4ccc([N+](=O)[O-])cc4)nn3)[C@H](O)C[C@]3(C)C(=CC[C@@H]4[C@@]5(C)CC[C@H](O)[C@@](C)(C=O)[C@@H]5CC[C@]43C)[C@@H]2C1 [Compound A10, (1-(4-nitrophenyl)-1H-1,2,3-triazol-4-yl)methyl (4aR,5R,6aS,6bR,8aR,9S,10S,12aR,12bR,14bS)-9-formyl-5,10-dihydroxy-2,2,6a,6b,9,12a-hexamethyl-1,3,4,5,6,6a,6b,7,8,8a,9,10,11,12,12a,12b,13,14b-octadecahydropicene-4a (2H)-carboxylate] | > 10 | > 10 | > 10 | 193 to 194 | > 10 | > 10
CC1(C)CC[C@]2(C(=O)OCc3cn(-c4ccc(F)cc4)nn3)[C@H](O)C[C@]3(C)C(=CC[C@@H]4[C@@]5(C)CC[C@H](O)[C@@](C)(C=O)[C@@H]5CC[C@]43C)[C@@H]2C1 [Compound A2, (1-(4-fluorophenyl)-1H-1,2,3-triazol-4-yl)methyl (4aR,5R,6aS,6bR,8aR,9S,10S,12aR,12bR,14bS)-9-formyl-5,10-dihydroxy-2,2,6a,6b,9,12a-hexamethyl-1,3,4,5,6,6a,6b,7,8,8a,9,10,11,12,12a,12b,13,14b-octadecahydropicene-4a (2H)-carboxylate] | 3.04 ± 0.92 | 8.78 ± 1.77 | > 10 | 171 to 172 | 3.18 ± 1.02 | > 10
CC1(C)CC[C@]2(C(=O)OCc3cn(-c4ccc(Br)cc4)nn3)[C@H](O)C[C@]3(C)C(=CC[C@@H]4[C@@]5(C)CC[C@H](O)[C@@](C)(C=O)[C@@H]5CC[C@]43C)[C@@H]2C1 [Compound A5, (1-(4-bromophenyl)-1H-1,2,3-triazol-4-yl)methyl (4aR,5R,6aS,6bR,8aR,9S,10S,12aR,12bR,14bS)-9-formyl-5,10-dihydroxy-2,2,6a,6b,9,12a-hexamethyl-1,3,4,5,6,6a,6b,7,8,8a,9,10,11,12,12a,12b,13,14b-octadecahydropicene-4a (2H)-carboxylate] | > 10 | > 10 | > 10 | 190 to 192 | > 10 | > 10
COc1ccc(-n2cc(COC(=O)[C@]34CCC(C)(C)C[C@H]3C3=CC[C@@H]5[C@@]6(C)CC[C@H](O)[C@@](C)(C=O)[C@@H]6CC[C@@]5(C)[C@]3(C)C[C@H]4O)nn2)cc1 [Compound A6, (1-(4-methoxyphenyl)-1H-1,2,3-triazol-4-yl)methyl (4aR,5R,6aS,6bR,8aR,9S,10S,12aR,12bR,14bS)-9-formyl-5,10-dihydroxy-2,2,6a,6b,9,12a-hexamethyl-1,3,4,5,6,6a,6b,7,8,8a,9,10,11,12,12a,12b,13,14b-octadecahydropicene-4a (2H)-carboxylate] | > 10 | > 10 | > 10 | 192 to 193 | > 10 | > 10
